Measured values taken from patent EP0565593B1, “REDUCING PESTICIDAL INTERACTIONS IN CROPS” (priority 1990, dated 1992).
“And” between values parts separate entries of the source, which are not always exact repeats. Equal entries are not always repeated. Where two headings read alike, the source gives them in different places.

Columns and labels:
[1] = tested on: Corn; assay: Greenhouse test Procedure VI: biocide and antidote in furrow, herbicide PPI in cover layer (Examples 43-47, 59-61; Tables 42-46, 58-60); format: in vivo; conditions: for safening: COUNTER 15G/PURSUIT interaction, Example 47
Text: This procedure describes interaction among herbicide, biocide and antidote when the herbicide is incorporated in a soil cover layer and the biocide and the antidote are applied in a soil furrow containing crop seed before emergence of the crop. The soil and seeding depth were described in Procedure IV. A first container was designated as an untreated control, a second container was designated as a herbicide control, a third container was designated as a herbicide + biocide control and a fourth container as a herbicide + biocide + antidote test container. The biocide and antidote were formulated as granules. The biocide was applied to the soil furrows of the third and fourth containers at an application rate of 1.1 mg of active compound per cm of row. The antidote was applied to the soil furrow of the fourth container at an application rate of 0.37 mg of active compound per cm of row. A measured amount of the herbicide dispersed or dissolved in acetone was applied to a measured quantity of soil. The quantity of soil treated with the herbicide was thoroughly mixed to incorporate the herbicide. Samples of this soil were used to cover the seed beds of the second, third and fourth containers. For each test series, the seed bed of the first container was likewise covered by a soil layer not treated with herbicide and without biocide or antidote in the soil furrow.
The containers were then placed on a bench in a greenhouse. Watering was by subirrigation plus overhead irrigation after the plants emerged. All treatments were run in duplicate. Plant response was observed according to Procedure IV. Variations in this procedure will be noted in the examples.
In continuing tests to evaluate the variations of this invention, a series of tests were conducted to determine the efficacy of the above safeners in Examples 39-42 to alleviate corn injury induced by the interaction of various additional commercial sulfonylurea herbicides with COUNTER 15G insecticide. In this example, the tests were conducted according to Procedure VI above. In modifications of that procedure, herbicides were applied to soil samples as acetone/water suspensions, incorporated by shaking in a closed container, with subsamples used to cover furrow-treated 10.2 cm pots. Pots were subirrigated followed by overhead misting on days 6-10.
This example was designed to test the safening effect of those above safeners used in this test series to relieve corn injury by negative synergism induced by interaction of COUNTER 15G and three imidazolinone herbicides, i.e., imazaquin and imazapyr (used in the POE tests in Example 41) and AC 263222 (a.i. in CADRE® herbicide). As differing from the tests in Example 41, this test was a PPI test according to Procedure VI described above. Observation of test results (Table 43) were taken thirteen 913) days after in-furrow PPI preparation.
This example describes PPI tests to evaluate said test safeners in this series with analogs of the sulfonamide herbicides tested under POE herbicide application procedures described in Example 42. In these tests, conducted according to Procedure VI described above, Herbicide Nos. 20, 22 and 24 were applied PPI with the insecticide and antidote. Observations of tests results were made thirteen days after PPI initiation.
An additional three (3) sulfonamide herbicide analogs were tested simultaneously and under the same conditions described in Example 45.
Another test of this invention involved the safening effects of the safeners in this series against negative synergy inducted by the interaction of COUNTER 15G and a sulfonylurea herbicide (OUST®), Herbicide No. 13, and PURSUIT, an imidazolinone herbicide, No. 6. Test conditions were the same as those in Examples 43-46. Other procedures for applying herbicidal formulations are as described in Example 42. […]

[2] = tested on: Corn
[3] = tested on: Corn; conditions: for antidote activity: COUNTER with BEACON, PURSUIT (POE) or XRD-498 (PPI), Tables 29-37; for activity in reducing corn injury: primisulfuron POE + biocides PPI, Tables 8-10
[4] = malathion + Herbicides 1, 21, 18, Example 54
[5] = Antidote + Biocide No. 1 in furrow, Herbicide No. 6 0.14 Kg/Ha PPI
[6] = Antidote + Biocide No. 1 in furrow, Herbicide No. 11 0.0044 Kg/Ha PPI
[7] = Antidote + Biocide No. 1 in furrow, Herbicide No. 12 0.0044 Kg/Ha PPI
[8] = Antidote + Biocide No. 1 in furrow, Herbicide No. 13 0.0011 Kg/Ha PPI
[9] = Antidote + Biocide No. 1 in furrow, Herbicide No. 13 0.0022 Kg/Ha PPI
[10] = Antidote + Biocide No. 1 in furrow, Herbicide No. 14 0.07 Kg/Ha PPI
[11] = Antidote + Biocide No. 1 in furrow, Herbicide No. 16 0.07 Kg/Ha PPI, 13 days
[12] = Antidote + Biocide No. 1 in furrow, Herbicide No. 17 0.14 Kg/Ha PPI, 13 days
[13] = Antidote + Biocide No. 1 in furrow, Herbicide No. 18 0.04 Kg/Ha PPI, 13 days
[14] = Antidote + Biocide No. 1 in furrow, Herbicide No. 20 1.12 Kg/Ha PPI, 13 days
[15] = Antidote + Biocide No. 1 in furrow, Herbicide No. 22 0.28 Kg/Ha PPI, 13 days
[16] = Antidote + Biocide No. 1 in furrow, Herbicide No. 24 0.14 Kg/Ha PPI, 13 days
[17] = Antidote + Biocide No. 1 in furrow, Herbicide No. 25 0.14 Kg/Ha PPI, 13 days
[18] = Antidote + Biocide No. 1 in furrow, Herbicide No. 26 2.24 Kg/Ha PPI, 13 days
[19] = Antidote + Biocide No. 1 in furrow, Herbicide No. 28 0.04 Kg/Ha PPI, 13 days
[20] = XRD-498 + OP insecticides, Examples 24-27
[21] = ACCENT POE + OP insecticides PPI, Tables 11-14
[22] = Antidote 4.48 + Biocide No. 1 8.96 Kg/Ha PPI, Herb. No. 8 0.07, 5 DAP, before herbicide application
[23] = Antidote 4.48 + Biocide No. 1 8.96 Kg/Ha PPI, Herb. No. 8 0.07 POE, 13 DAP
[24] = Antidote 4.48 + Biocide No. 1 8.96 Kg/Ha PPI, Herbicide No. 7 0.28 POE, 13 days after planting
[25] = Herb. […], 5 DAP, before herbicide application
[26] = Table 14: Herbicide No. 7 (ACCENT) 0.84 Kg/Ha POE + Biocide No. 2 8.96 Kg/Ha PPI + antidote 4.48 Kg/Ha PPI, 13 days after planting, 8 days after herbicide
[27] = […], 13 days after planting, 8 days after herbicide
[28] = […], observed 10 days after herbicide application
[29] = MON-12000 + OP insecticides, Examples 20-23

O=C(OCc1ccccc1)c1sc(Cl)nc1C(F)(F)F [Antidote No. 7, 5-Thiazolecarboxylic acid, 2-chloro-4-(trifluoromethyl)-, (phenylmethyl) ester]
safening [1]: less effective than the other safeners | safening [2, 4]: moderate to high degrees of safening | antidote activity [3]: slightly more active than other thiazoles tested

CC1(C)OC(c2ccco2)CN1C(=O)C(Cl)Cl (stereo not drawn) [compound 1]
% Inhibition Corn [1, 5]: 15% | % Inhibition Corn [1, 6]: 15% | % Inhibition Corn [1, 7]: 20% | % Inhibition Corn [1, 8]: 40% | % Inhibition Corn [1, 9]: 70% | % Inhibition Corn [1, 10]: 10% | % Inhibition Corn [1, 11]: 45% | % Inhibition Corn [1, 12]: 45% | % Inhibition Corn [1, 13]: 10% | % Inhibition Corn [1, 14]: 25% | % Inhibition Corn [1, 15]: 5% | % Inhibition Corn [1, 16]: 25% | % Inhibition Corn [1, 17]: 15% | % Inhibition Corn [1, 18]: 20% | % Inhibition Corn [1, 19]: 20% | safening activity [2, 20]: Safening activity was observed | % Inhibition Corn ([2]; […], PPI, 13 days after PPI (Table 31)): 25% | reducing corn injury, comparison ([2]; in vivo): superior to No. 28 | safener activity [3, 21]: most active | % Inhibition 5 DAP Corn [3, 22]: 10% | % Inhibition 13 DAP Corn [3, 23]: 25% | % Inhibition Corn [3, 24]: 20% | % Inhibition 5 DAP Corn [3, 25]: 0% | % Inhibition Corn [3, 26]: 5% | % Inhibition Corn [3, 27]: 5% | % Inhibition Corn ([3]; […], observed 9 days later (Table 29)): 10% | % Inhibition Corn ([3]; […], observed 9 days later (Table 30)): 35% | % Inhibition Corn [3, 28]: 55% | % Inhibition 5 DAP Corn ([3]; in vivo): 30% | % Inhibition 13 DAP Corn ([3]; in vivo): 20% | activity in reducing corn injury [3]: most active

COC(=O)c1c(Cl)nn(C)c1S(=O)(=O)NC(=O)Nc1nc(OC)cc(OC)n1 [Herbicide No. 1, N-[(4,6-dimethoxypyrimidin-2-yl)aminocarbonyl]-3-chloro-4-methoxycarbonyl-5-sulfonamide, reference compound]
% Inhibition Corn ([2]; Herb. […], PPI, 13 days after planting): 70% | % Inhibition Corn ([2]; Herbicide No. 1 0.0175 Kg/Ha PPI alone, Table 19): 5% | % Inhibition Corn ([2]; Herbicide No. 1 0.0175 Kg/Ha PPI alone, Table 20): 0% | % Inhibition Corn ([2]; Herbicide No. 1 0.0175 Kg/Ha PPI alone, Table 21): 0% | % Inhibition Corn ([2]; Herbicide No. 1 0.0175 Kg/Ha PPI alone, Table 22): 0% | corn injury ([2]; MON-12000 0.14 kg/ha with the OP insecticides at 8.96 kg/ha): 45-50% | corn injury ([2]; MON-12000 0.14 kg/ha without insecticide, Examples 20-23): 0-5% | % Inhibition Corn ([2]; Table 53, Herbicide No. 1, rate printed as '-', where applied Biocide No. 7 8.96 kg/Ha and antidote 4.48 Kg/Ha, all PPI, observed 13 days after treatment): 5% | % Inhibition Corn ([2]; Table 54, Herbicide No. 1, rate printed as '-', where applied Biocide No. 6 8.96 kg/Ha and antidote 4.48 Kg/Ha, all PPI, observed 14 days after PPI initiation): 5% | % Inhibition Corn ([2]; in vivo): 50% and 45%

COC(=O)COC(c1ccccc1)c1ccccc1 [compound 12]
% Inhibition Corn [1, 5]: 10% | % Inhibition Corn [1, 6]: 10% | % Inhibition Corn [1, 7]: 10% | % Inhibition Corn [1, 8]: 35% | % Inhibition Corn [1, 9]: 55% | % Inhibition Corn [1, 10]: 0% | % Inhibition Corn [1, 11]: 40% | % Inhibition Corn [1, 12]: 10% | % Inhibition Corn [1, 13]: 5% | % Inhibition Corn [1, 14]: 25% | % Inhibition Corn [1, 15]: 0% | % Inhibition Corn [1, 16]: 30% | % Inhibition Corn [1, 17]: 0% | % Inhibition Corn [1, 18]: 5% | % Inhibition Corn [1, 19]: 10% | % Inhibition Corn ([1]; Herbicide No. 12 0.0044 Kg/Ha PPI + Biocide No. 1 in furrow, no antidote): 70% | % Inhibition Corn ([1]; Herbicide No. 12 0.0044 Kg/Ha PPI alone, average of two reps): 40% | safening activity [2, 29]: Safening activity was observed | safening activity [2, 20]: Safening activity was observed | % Inhibition Corn ([2]; […], PPI, 14 days after PPI (Table 34)): 25% | reducing corn injury, comparison ([2]; in vivo): superior to No. 28 | safener activity [3, 21]: most active | % Inhibition 5 DAP Corn [3, 22]: 20% | % Inhibition 13 DAP Corn [3, 23]: 15% | % Inhibition Corn [3, 24]: 20% | % Inhibition 5 DAP Corn [3, 25]: 0% | % Inhibition Corn [3, 26]: 0% | % Inhibition Corn [3, 27]: 0% | % Inhibition Corn ([3]; […], observed 8 days later (Table 32)): 0% | % Inhibition Corn ([3]; […], observed 8 days later (Table 33)): 40% | % Inhibition Corn [3, 28]: 60% | % Inhibition 5 DAP Corn ([3]; in vivo): 20% | % Inhibition 13 DAP Corn ([3]; in vivo): 20% | activity in reducing corn injury [3]: most active

N#CCOc1ccc(Cl)c2cccnc12 [compound 33]
% Inhibition Corn [1, 5]: 20% | % Inhibition Corn [1, 6]: 20% | % Inhibition Corn [1, 7]: 20% | % Inhibition Corn [1, 8]: 40% | % Inhibition Corn [1, 9]: 90% | % Inhibition Corn [1, 10]: 10% | % Inhibition Corn [1, 11]: 35% | % Inhibition Corn [1, 12]: 20% | % Inhibition Corn [1, 13]: 5% | % Inhibition Corn [1, 14]: 50% | % Inhibition Corn [1, 15]: 5% | % Inhibition Corn [1, 16]: 40% | % Inhibition Corn [1, 17]: 20% | % Inhibition Corn [1, 18]: 10% | % Inhibition Corn [1, 19]: 30% | safening activity [2, 29]: Safening activity was observed | safening activity [2, 20]: Safening activity was observed | safening [2, 4]: moderate to high degrees of safening | safener activity [3, 21]: most active | % Inhibition 5 DAP Corn [3, 22]: 25% | % Inhibition 13 DAP Corn [3, 23]: 20% | % Inhibition Corn [3, 24]: 15% | % Inhibition 5 DAP Corn [3, 25]: 0% | safener activity ([3]; PURSUIT POE + insecticides PPI, Tables 15-18): most active | % Inhibition Corn [3, 26]: 0% | % Inhibition Corn [3, 27]: 10% | % Inhibition Corn [3, 28]: 40% | % Inhibition 5 DAP Corn ([3]; in vivo): 30% | % Inhibition 13 DAP Corn ([3]; in vivo): 20% | effect on corn before application of the herbicide ([3]; in vivo): Some injury | activity in reducing corn injury [3]: most active

CC1(C)OC(c2ccco2)CN1C(=O)C(Cl)Cl (stereo not drawn) [Antidote No. 1, Oxazolidine, 3-(dichloroacetyl)-2,2-dimethyl-5-(2-furanyl)-]
safener efficacy, comparison ([1]; COUNTER 15G + PURSUIT/co-herbicides, Example 61): more effective than flurazole or MON-4660 | safening [1]: good activity | safening ([2]; DIAZINON + Herbicides 1, 21, 18, Example 53): Effective safening | antidote activity [3]: most active antidote | relieving corn injury, comparison ([3]; Example 29, COUNTER/PURSUIT negative synergy): more active than Antidote No. 28
